Laboratory results from the supplement of paper PMC10307832.

Legend:
Assay in all cases: relative viability (nuclei count vs DMSO), 5 days (fraction); higher = more cells survive
Metformin + Crizotinib = compound: CN(C)C(=N)NC(=N)N [Metformin] + C[C@@H](Oc1cc(-c2cnn(C3CCNCC3)c2)cnc1N)c1c(Cl)ccc(F)c1Cl [Crizotinib] (partner 1 µM)
In short: (§1)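 Lung cancer cell lines in 1536-well plates got either a single drug or a fixed anchor-drug dose together with five library-drug doses (not always all listed) in √10 steps, by pin tool, on the day after seeding. Nuclei were counted after 5 days, and relative viability is the treated-to-vehicle ratio of nuclei counts. Values are medians of duplicate plates.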

Metformin + Foretinib = compound: CN(C)C(=N)NC(=N)N [Metformin] + COc1cc2c(Oc3ccc(NC(=O)C4(C(=O)Nc5ccc(F)cc5)CC4)cc3F)ccnc2cc1OCCCN1CCOCC1 [Foretinib] (partner 0.25 µM)
In short: as §1

Apatinib + Pictilisib = compound: N#CC1(c2ccc(NC(=O)c3cccnc3NCc3ccncc3)cc2)CCCC1 [Apatinib] + CS(=O)(=O)N1CCN(Cc2cc3nc(-c4cccc5[nH]ncc45)nc(N4CCOCC4)c3s2)CC1 [Pictilisib] (partner 1 µM)
In short: as §1

Metformin + Linsitinib = compound: CN(C)C(=N)NC(=N)N [Metformin] + C[C@]1(O)C[C@@H](c2nc(-c3ccc4ccc(-c5ccccc5)nc4c3)c3c(N)nccn32)C1 [Linsitinib] (partner 1 µM)
In short: as §1

Row | Cell Line | relative viability (Metformin + Crizotinib; first compound 10 µM) | relative viability (Metformin + Crizotinib; first compound 31.62 µM) | relative viability (Metformin + Crizotinib; first compound 100 µM) | relative viability (Metformin + Crizotinib; first compound 316.23 µM) | relative viability (Metformin + Crizotinib; first compound 1000 µM) | relative viability (Metformin + Foretinib; first compound 10 µM) | relative viability (Metformin + Foretinib; first compound 31.62 µM) | relative viability (Metformin + Foretinib; first compound 316.23 µM) | relative viability (Metformin + Foretinib; first compound 1000 µM) | relative viability (Apatinib + Pictilisib; first compound 0.08 µM) | relative viability (Apatinib + Pictilisib; first compound 0.253 µM) | relative viability (Apatinib + Pictilisib; first compound 0.8 µM) | relative viability (Apatinib + Pictilisib; first compound 2.53 µM) | relative viability (Apatinib + Pictilisib; first compound 8 µM) | relative viability (Metformin + Linsitinib; first compound 10 µM) | relative viability (Metformin + Linsitinib; first compound 31.62 µM) | relative viability (Metformin + Linsitinib; first compound 100 µM) | relative viability (Metformin + Linsitinib; first compound 316.23 µM) | relative viability (Metformin + Linsitinib; first compound 1000 µM) | relative viability (Metformin + Foretinib; first compound 100 µM)
1 | EBC-1 | 0.205 | 0.154 | 0.205 | 0.173 | 0.222 | 0.0914 | 0.09 | 0.103 | 0.0951 | 0.36 | 0.345 | 0.299 | 0.247 | 0.157 | 0.796 | 0.997 | 0.815 | 0.698 | 0.884 | 
2 | NCI-H596 | 1.05 | 1.17 | 1.09 | 1.11 | 1.17 | 0.832 | 0.855 | 0.861 | 0.89 | 0.419 | 0.402 | 0.353 | 0.32 | 0.383 | 1.11 | 1.18 | 1.32 | 1.08 | 1.25 | 0.85
3 | NCI-H2228 | 0.48 | 0.515 |  | 0.385 | 0.581 | 0.804 | 0.862 | 0.671 | 0.768 | 0.338 | 0.417 | 0.451 | 0.355 | 0.539 | 0.542 | 0.973 |  | 0.583 | 0.889 | 1.09
4 | NCI-H661 |  | 0.848 | 0.843 | 0.885 | 0.8 | 0.809 | 0.877 | 0.834 | 0.916 | 0.273 | 0.393 | 0.461 | 0.381 | 0.367 | 0.761 | 0.966 | 0.812 | 0.767 | 0.677 | 0.879
5 | 201T |  | 1.04 | 1.07 | 0.965 | 1 |  | 1.21 | 1.01 | 0.824 | 0.748 | 0.643 | 0.662 | 0.604 | 0.663 |  | 1.12 | 1.1 | 1.07 | 1.06 | 1.38
6 | HARA | 1.13 | 1.09 | 1.15 | 1.01 | 1.08 |  | 1.03 | 1 | 1.09 | 0.447 | 0.491 | 0.494 | 0.435 | 0.307 | 1.14 | 1.07 | 1.2 | 0.872 | 1.06 | 1.21
7 | NCI-H3122 | 0.225 | 0.213 | 0.241 | 0.255 | 0.224 | 0.946 | 0.951 | 0.806 | 0.919 | 0.679 | 0.538 | 0.684 | 0.731 | 0.701 | 0.89 | 0.98 | 0.949 | 0.96 | 0.92 | 0.944
8 | NCI-H1651 | 0.933 | 0.957 | 0.939 | 0.964 | 0.97 | 1.01 | 0.765 | 0.802 | 1.02 | 0.665 | 0.565 | 0.494 | 0.614 | 0.476 | 1.3 | 1.23 | 1.35 | 1.21 | 1.43 | 1.03
9 | SK-MES-1 | 0.884 | 0.893 | 0.925 | 0.784 | 0.932 | 0.915 | 0.888 | 0.912 | 1.18 | 0.421 | 0.3 | 0.326 | 0.37 | 0.32 | 0.979 | 0.927 | 0.993 | 0.939 | 1.02 | 0.874
10 | NCI-H2085 | 0.952 | 0.694 | 0.947 | 0.721 | 0.879 | 0.854 | 0.892 | 1.04 | 1.19 | 0.464 | 0.457 | 0.475 | 0.449 | 0.499 | 0.822 | 0.8 | 0.765 | 0.844 | 0.875 | 0.865
11 | SK-LU-1 | 0.787 | 0.772 | 0.884 | 0.817 | 0.824 | 0.807 | 0.77 | 0.69 | 0.79 | 0.786 | 0.637 | 0.564 | 0.557 | 0.453 | 0.947 | 1.08 | 0.674 | 1.08 | 1.03 | 0.769
12 | COR-L23 | 0.564 | 0.461 | 0.483 | 0.574 | 0.639 | 0.88 | 0.861 | 0.836 | 0.975 | 0.966 | 0.777 | 0.788 | 0.65 | 0.658 | 0.821 | 0.828 | 0.9 | 0.77 | 0.843 | 0.863
13 | COR-L 105 | 0.71 | 0.841 | 0.821 | 0.745 | 0.697 | 1.23 | 1.38 | 1.14 | 0.791 | 0.512 | 0.471 | 0.33 | 0.438 | 0.354 | 1.06 | 1.23 | 0.977 | 0.87 | 0.815 | 1.23
14 | PC-3 [JPC-3] | 0.861 | 0.893 | 0.951 | 0.876 | 0.901 | 0.808 | 0.945 | 0.93 | 0.946 | 0.781 | 0.741 | 0.594 | 0.605 | 0.683 | 0.895 | 1.01 | 0.902 | 0.918 | 0.942 | 0.996
